Laboratory results from patent publication US10942159B2, “Product sustainability scorecard” (Symrise AG, priority 2016, dated 2021).

Legend:
[1] = Product Sustainability Scorecard: biodegradability score according to OECD Method 301/302; settings: consolidated scorecard score, scale 0 to 100; score equals % biodegradation after 28-day OECD 301 test
Experimental: Biodegradation is one of the most important factors in assessing the environmental fate of chemicals. Biodegradation is the chemical dissolution of materials by bacteria, fungi, or other biological means. Biodegradability is evaluated according to the OECD Method 301/302 or equivalent. The tests of the OECD test series 301 (A-F) verify whether a substance is able for complete biodegradation under aerobic conditions. Different test methods are available for well or poorly soluble as well as volatile substances. The test usually takes 28 days. Test items must reach 60% biodegradation within 10 days to be classified as ‘ready biodegradable’.
Scheme 1: Scoring • STEP 1 Evaluation of the “Biodegradability Score” of the fragrance raw material based on the following scoring system
The score for biodegradability of the compound or the compounds is evaluated according to OECD Method 301/302 or equivalent.

[2] = Product Sustainability Scorecard: process safety with regard to ecological toxicity (Product EcoTox score from GHS H-phrases and supplier score); settings: consolidated scorecard score, normalized scale 0 to 100 without dimension
Excerpt: (§1) Hazard statements form part of the ‘Globally Harmonized System of Classification and Labelling of Chemicals’ (GHS). They are intended to form a set of standardized phrases about the hazards of chemical substances and mixtures.
(§2) H200: Physical Hazards (=Toxicity and Eco Toxicity)
H400: Environmental Hazards (=Eco Toxicity)
(§3) Scheme 4 and 5: Scoring • STEP 1 Evaluation of the ‘(Eco) Toxicity Material Score’ and ‘Critical By-Product Score’ of each reactant and its potential by-products based on the safety according to material properties:
(§4) • STEP 2 Evaluation of the ‘(Eco) Tox Supplier Score’ of each reactant based on process safety according to chemical handling (see appendix for further information):
(§5) • STEP 3 Calculation of the overall ‘(Eco) Tox Score’ of each reactant and the final product. […] If the supplier score is better, it outweighs the material score—following the assumption that a safe and controlled production environment is able to avert the risks of hazardous materials: MAX(‘(Eco) Tox Material Score’;‘(Eco) Tox Supplier Score’)=(Eco) Tox Score • (ii) Composed products: For composed products the (Eco) Tox Score combines the hazard and supplier information of the composed product itself (calculated as above) with the (Eco) Tox Score of its reactants. […]

[3] = Product Sustainability Scorecard: process safety with regard to human toxicity (Product Tox score from GHS H-phrases and supplier score); settings: consolidated scorecard score, normalized scale 0 to 100 without dimension
Excerpt: as §1, §2
H300: Health Hazards (=Toxicity)
as §3, §4, §5
The score for the overall human toxicity S(HTOX) is calculated according to the following equation (4): S(HTOX)=⅔*MAX(Ma;Pa)+⅓*(Mb*Cb)+ . . . […]

Biodegradability [1]: 100.00
Substance: 44_Dihydro Myrcenol [44DHM]
Product EcoTox [2]: 87.73
Product Tox [3]: 80.38
